The values that follow come from patent US8846914B2, “Compositions to effect neuronal growth” (Neuralstem, Inc., priority 2003, dated 2014).

The test system of experiment [1] is human hippocampal stem cells. As to the kind of experiment: Cell proliferation, Alamar Blue staining of live cells. The class given is cell-based. The settings on record: seven days of compound treatment; relative to vehicle control. Here is the method:
FIG. 1 is a bar graph illustrating an example of a proliferation profile of compounds selected from primary screening. Proliferation is measured after compound treatment for seven days by Alamar Blue staining of live cells per well. Shown are relative values over the vehicle control.
Neural stem cells and progenitor cells differentiate spontaneously in the absence of a mitogen; therefore, undifferentiated mitotic cells are harvested by enzyme treatment to remove residual mitogen, such as basic fibroblast growth factor (bFGF) used in expansion and proliferation of the cells. In one embodiment of the present invention, undifferentiated human hippocampal stem cells (e.g., HH580)/progenitor cells are harvested by enzyme treatment.
The collected cells are seeded for attachment of the cells such as standard 96-well or 384-well plates, pre-coated with extracellular matrix proteins, such as poly-D-lysine and fibronectin (e.g., Biocoat PDL, Fisher). The initial seeding density can be within the range of about 2,000-125,000 cells per well of a 96-well plate. The preferred density, however, is 40,000 cells per well of a 96-well plate which has been optimized for best signal-to-noise ratio as described in pending U.S. patent application Ser. No. 10/728,652. Cell density that is too low retards the initiation of differentiation and results in poor plating efficiency which interferes with the assay. Cell density that is too high leads to inhibition of neurogenesis due to cell-to-cell interaction and paracrine factors which also interfere with the assay. […] For example, for a 384-well plate which has approximately one-fourth of the surface area of a 96-well plate, the initial seeding density should be decreased by one-fourth accordingly.
The cells are passaged and grown for seven days in 15 cm plates in full growth medium according to Neuralstem protocol with 50% of the media changed every other day. Following centrifugation, the call pellet is re-suspended in N2b medium and enough N2b medium is added to the cell suspension to achieve a concentration of […]. The N2b seeding media includes a standard serum-free, growth factor-free, basal media without phenol red that supports healthy neuronal/glial survival. Fibronectin and PBS is completely removed by aspiration from wells of fibronectin-coated 96-well plate(s). 100 μl of N2b medium with or without 2× concentration of screening agents or compounds to be tested are added to each well. Subsequently, 100 μl of the cell suspension is added to each well at a density of 40,000 cells per well. The cell suspension is incubated for two days at 37° C. in the presence of 5% CO2.
On Days 2, 4, and 6 of post-plating, incremental additions of the compounds are made to each well at appropriate concentrations. Therefore, after two days, 100 μl of N2b medium is removed from the wells, and 100 μl of the N2b medium is added. Likewise, on days four and six, 100 μl of N2b medium is removed from the wells and 100 μl of the N2b medium is added, and the cell suspension is again incubated at 37° C. in the presence of 5% CO2.
On day seven, the final day of the culture, a fluorescent dye such as Alamar Blue dye is added to each well. Alamar Blue dye detects metabolic respiration and is a reflection of total cellular activity indicating changes in cell number of neurons. In this regard, 20 μl of Alamar Blue (Biosource International DAL 1025) is added to each well and incubated for two hours at 37° C. in the presence of 5% CO2.
As a preliminary detection of positive activities, the overall immunostaining intensity in each well is read by a fluorescence plate reader. For instance, the fluorescence of the oxidized dye in each well is read by a fluorescent plate reader such as the Molecular Devices Fluorometric Plate Reader. The reader is set on the Read Mode End Point setting at an excitation of 530 nm, an emission of 590 nm, and a cutoff 570 nm. […]

The test system of experiment [2] is Differentiating human hippocampal stem cells. The experiment can be described thus: Neurogenesis dose-response profile. The class given is cell-based. The settings on record: for activity at 0.3 µM: @300 nM; for activity at 30 µM: @30000 nM; for activity at 10 µM: @10000 nM; for activity at 1 µM: @1000 nM; for activity at 3 µM: @3000 nM; for activity at 0.001 µM: @1 nM. Here is the method: FIG. 4 is a line graph illustrating an example of a neurogenesis dose-response profile of selected compounds. Differentiating human hippocampal stem cells were treated for seven days with varying concentrations of “primary hits”. Subsequently, the cells were fixed, stained with anti-beta tubulin antibody, and positive cells were quantified by Array Scan II. Shown are the number of neurons after each treatment normalized against the no-compound control.
In another in vitro assay, compounds are tested as above at varying concentrations to obtain a dose-response curve and EC50 values (effective concentration of the compound which produces 50% of the maximum possible response for that compound).
Primary dose-response profiles and secondary functional assays are used to further eliminate compounds from the primary screen based on a lack of dose-dependent effect on neurogenesis, indicated by lack of linearity of dose-response, and in vitro neurotoxicity. The dose-response curve measures neurogenesis over a concentration range of 100 pM to 100 μM. […] Table II contains the summary of EC50 of each compound tested.

The mark [3] stands for this setting: Homo sapiens, Neuron, 168 h, normalized against no-compound control, read-out: Neuron# Eff.
Setting [4] is: Homo sapiens, Neuron, 168 h, seven days, 100 pM to 100 μM.
[5] abbreviates: Homo sapiens, Neuron, 168 h, read-out: % Neuron Ratio Eff.

Where two headings read alike, the source gives them in different places. Bounds are passed on as bounds.

The EC50 is the midpoint of the concentration-response curve. A lower EC50 goes with an effect from little substance. Consider `CCCCNc1c(C2CCN(C(=O)CN(CC(C)C)S(C)(=O)=O)CC2)nc2cnccn12` [NSI-106], for which the “% Prolif (Alamar)” value in experiment [1] worked out at 211 ± 48%. The activity at 0.1 µM in experiment [2] (Homo sapiens, Neuron, 168 h, @100 nM, read-out: % Neuron Ratio Eff) stood at 165%. In addition, the activity at 0.3 µM in experiment [2] (setting [3]) is 157%. This compound also yielded a concentration giving a half-maximal response (EC50) in experiment [2] (setting [4]) of 0.07 nM.

For `CS(=O)(=O)N1CCCCC1C(=O)NCc1ccc(Nc2c(C3CC3)nc3ccccn23)cc1` (centres unmarked) [NSI-127], the “% Prolif (Alamar)” value in experiment [1] amounted to 181 ± 14%. For the same compound, the activity at 0.01 µM in experiment [2] (Homo sapiens, Neuron, 168 h, @10 nM, read-out: % Neuron Ratio Eff) was 114%. The activity at 30 µM in experiment [2] (setting [3]) is 137%. In addition, the EC50 in experiment [2] (setting [4]) was determined as 1.5 nM.

Take `COc1ccc(CCNc2ncc(C(N)=O)c(NC3CC3)n2)cc1OC` [NSI-130]: the “% Prolif (Alamar)” value in experiment [1] came out at 92 ± 33%. The activity at 10 µM in experiment [2] (setting [3]) was found to be 202%. The activity at 30 µM in experiment [2] (setting [5]) was determined as 144%. The same compound came in with an EC50 in experiment [2] (setting [4]) of 2160 nM.

For the compound `CCCNc1ncc(C(N)=O)c(NC2CCCC2)n1` [NSI-137], the “% Prolif (Alamar)” value in experiment [1] was 108 ± 28%. The activity at 30 µM in experiment [2] (setting [3]) came to 145%; in experiment [2] (setting [5]), 126%. The EC50 in experiment [2] (setting [4]) was > 1000 nM.

Turning to `O=C(c1cccnc1N1CCNCC1)N1CCN(Cc2ccncc2)CC1` [NSI-142], the “% Prolif (Alamar)” value in experiment [1] was 115 ± 13%. Moreover, the activity at 30 µM in experiment [2] (setting [3]) worked out at 175%; in experiment [2] (setting [5]), 123%. The compound also displayed an EC50 in experiment [2] (setting [4]) of 0.001 nM.

With `O=C(NC1CCN(Cc2ccccc2)CC1)c1cccnc1N1CCNCC1` [NSI-143], the “% Prolif (Alamar)” value in experiment [1] is given as 97 ± 16%. For the same compound, the values for the activity at 30 µM in experiment [2] (setting [3]) and in experiment [2] (setting [5]) were 115% and 112%, respectively. A half-maximal effect in experiment [2] (setting [4]) (EC50) was put at 4.8 nM.

`NC(=O)c1cnc(NCc2ccc(Cl)cc2)nc1NCC1CCCCC1` [NSI-144]: the “% Prolif (Alamar)” value in experiment [1] worked out at 149 ± 15%. Besides, the activity at 0.3 µM in experiment [2] (setting [3]) came to 186%; in experiment [2] (setting [5]), 138%. Moreover, in experiment [2] (setting [4]), the response was half-maximal at 13.5 nM (EC50).

With `CCCCNc1c(C2CCN(C(=O)c3ccc(C#N)cc3)CC2)nc2ccccn12` [NSI-149], the “% Prolif (Alamar)” value in experiment [1] is 216 ± 28%. Besides, the activity at 1 µM was found to be 124% in experiment [2] (setting [3]) and 111% in experiment [2] (setting [5]). The EC50 in experiment [2] (setting [4]) is < 0.1 nM.

As to `C=CCNC(=O)c1cccnc1NCc1ccccc1OC` [NSI-150], the “% Prolif (Alamar)” value in experiment [1] was found to be 177 ± 44%. In addition, the activity at 3 µM in experiment [2] (setting [3]) amounted to 227%. In experiment [2] (setting [5]), the activity at 30 µM amounted to 112%. Also, the half-maximal effective concentration (EC50) in experiment [2] (setting [4]) worked out at 85 nM.

For the compound `CC(C)(C)OC(=O)NCCNC(=O)c1cccnc1NCC1CCCCC1` [NSI-157], the “% Prolif (Alamar)” value in experiment [1] is 218 ± 140%. Moreover, the activity at 10 µM in experiment [2] (setting [3]) came to 113%. Also, the activity at 30 µM in experiment [2] (setting [5]) came to 146%. In experiment [2] (setting [4]), the EC50 was > 1000 nM.

On to `NC(=O)C1CCCN1C(=O)c1cccnc1NCC1CCCCC1` (centres unmarked) [NSI-158], for which the “% Prolif (Alamar)” value in experiment [1] was 236 ± 79%. Moreover, the activity at 0.3 µM in experiment [2] (setting [3]) worked out at 145%. Further, in experiment [2] (setting [5]), the activity at 3 µM was 106%. The compound also showed an EC50 in experiment [2] (setting [4]) of 0.2 nM.

On to `O=C(NCc1nc2ccccn2c1NCC1CCCO1)Oc1ccccc1` (centres unmarked) [NSI-182], for which the “% Prolif (Alamar)” value in experiment [1] was found to be 74 ± 8%. For the same compound, the activity at 0.3 µM in experiment [2] (setting [3]) came to 123%. The activity at 10 µM in experiment [2] (setting [5]) was determined as 112%. Moreover, it took 0.1 nM to reach a half-maximal effect in experiment [2] (setting [4]) (EC50).

Turning to `O=C(COc1ccccc1)NCc1nc2ccccn2c1NCC1CCCO1` (centres unmarked) [NSI-183], the “% Prolif (Alamar)” value in experiment [1] was found to be 69 ± 18%. Besides, the activity at 0.001 µM in experiment [2] (setting [5]) was found to be 112%. Besides, the activity at 0.3 µM in experiment [2] (setting [3]) was 140%. The compound further had an EC50 in experiment [2] (setting [4]) of 0.05 nM. For the same compound, the “% Neuron Ratio EC50” value in experiment [2] (seven days, 100 pM to 100 μM) is “No Curve”.

Regarding `CS(=O)(=O)N(CC(=O)NCc1nc2ccccn2c1NCc1ccccc1)c1ccccc1` [NSI-185], in experiment [1], the “% Prolif (Alamar)” value was 73 ± 26%. Moreover, in experiment [2] (setting [3]), the activity at 3 µM worked out at 132%. For the same compound, in experiment [2] (setting [5]), the activity at 30 µM was 112%. Besides, the EC50 in experiment [2] (setting [4]) came to 786 nM.

Consider `CC(C)CCNc1ncccc1C(=O)N1CCN(Cc2ccccc2)CC1` [NSI-189], for which, in experiment [1], the “% Prolif (Alamar)” value came to 70 ± 21%. Also, the values for the activity at 30 µM in experiment [2] (setting [3]) and in experiment [2] (setting [5]) were 165% and 141%, respectively. Moreover, the EC50 in experiment [2] (setting [4]) worked out at 253 nM.

As to `CCN(CCNC(=O)c1cccnc1NCCC(C)C)Cc1cccnc1` [NSI-190], the “% Prolif (Alamar)” value in experiment [1] is 76 ± 14%. Further, in experiment [2] (setting [5]), the activity at 0.001 µM came to 128%. Moreover, the activity at 0.3 µM in experiment [2] (setting [3]) came out at 165%. The compound further came in with an EC50 in experiment [2] (setting [4]) of 13 nM.
